Data set [1] deals with phosphorylation of Rb. Briefly: Immunoblotting of Rb phosphorylation in cells. In kind it is cell-based, human. The conditions noted are these: FAT1 loss / CDK6-high CDK4/6i-resistant MCF7 cells. The method, then:
(§1) Cell lysates were collected in RIPA buffer (Thermo Fisher Scientific) supplemented with protease and phosphatase inhibitors (Pierce). Protein concentration was quantified by using the BCA kit (Fisher Scientific). […] of protein lysates were loaded onto 4-12% SDS-PAGE gels (Invitrogen) for electrophoresis and transferred onto nitrocellular membranes. Blots were blocked with Intercept™ (TBS) Blocking Buffer (LI-COR Bioscience #927-60001) and incubated with primary antibody at 4° C. overnight. Secondary antibodies conjugated with fluorescence (LI-COR Bioscience #926-68071 and #926-32210) were incubated for 1 h at room temperature and blots were scanned by Odyssey Clx Imaging System from LI-COR Bioscience.
(In general: A western blot detects proteins with antibodies after separation by electrophoresis.)

The target in data set [2] is CDK6 (Homo sapiens, UniProt Q00534). The data set can be described thus: Immunoblotting of CDK6 degradation in cells. The arrangement: MCF7 cells that lost FAT1 expression and with high CDK6 expression; endogenous in cells; host or cells: MCF-7 FAT1 loss cells (also MCF-7 parental). In kind it is cell-based. The method, then:
as §1

The target in data set [3] is T1, CDK4 (Homo sapiens, UniProt P11802).
T1 construct: CDK4 and CDK6 were immunoprecipitated from isogenic drug sensitive (MCF7 parental cells with low CDK6); endogenous in cells; host or cells: MCF-7 parental and MCF-7 FAT1 CRISPR knockout (CDK6-high) cells
T1 sequence (P11802 whole entry): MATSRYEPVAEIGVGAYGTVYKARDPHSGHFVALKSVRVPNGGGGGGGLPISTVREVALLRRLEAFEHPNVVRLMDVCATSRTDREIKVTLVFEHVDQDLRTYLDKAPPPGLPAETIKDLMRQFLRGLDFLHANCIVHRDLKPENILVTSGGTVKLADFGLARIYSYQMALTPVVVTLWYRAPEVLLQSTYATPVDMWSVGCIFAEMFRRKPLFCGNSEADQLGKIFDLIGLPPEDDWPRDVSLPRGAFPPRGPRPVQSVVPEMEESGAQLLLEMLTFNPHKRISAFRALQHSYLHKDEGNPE
T1 sequence (P24385 whole entry partner): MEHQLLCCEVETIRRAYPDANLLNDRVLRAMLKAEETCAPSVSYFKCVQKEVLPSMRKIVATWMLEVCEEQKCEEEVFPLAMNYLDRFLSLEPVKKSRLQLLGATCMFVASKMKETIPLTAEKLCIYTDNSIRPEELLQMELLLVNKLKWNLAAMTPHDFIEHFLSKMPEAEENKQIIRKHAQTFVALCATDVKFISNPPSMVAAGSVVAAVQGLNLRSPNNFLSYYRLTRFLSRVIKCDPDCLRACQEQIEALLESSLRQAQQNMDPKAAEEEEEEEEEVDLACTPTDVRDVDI
The data set can be described thus: Immunoblotting of CDK4 degradation in cells. It counts as cell-based. The method, then:
as §1

Data set [4] deals with patient-derived xenograft models. The data set can be described thus: Patient-derived xenograft tumor growth. It counts as in vivo, mice. The settings on record: two patient-derived xenograft models; ribociclib at clinical equivalent dose.
Data set [5] in a line: Pharmacokinetic study. It counts as in vivo, C57BL/6 male mice. The method, then: Pharmacokinetic study. C57BL/6 male mice were dosed with BSJ-05-017 solution formulation (i.p., 5/95 DMSO/10% captisol, dose 25 mg/kg) and BSJ-03-096 solution formulation (p.o., 5/95 DMSO/10%, dose 10 mg/kg). Blood samples were collected at 0.08, 0.25, 0.5, 1, 2, 4, 6, 8 and 24 hr. The blood samples were collected from sets of three mice at each time point in microcentrifuge tubes containing K2EDTA as an anticoagulant. Plasma samples were separated by centrifugation and stored below −70° C. until bioanalysis. All samples were processed for analysis by precipitation using acetonitrile and analyzed with a partially validated LC/MS/MS method (LLOQ −1.22 ng/mL for IV and PO, LLOQ −5.02 ng/mL for IP). Pharmacokinetic parameters were calculated using the noncompartmental analysis tool of WinNonlin Enterprise software (Version 6.3).

In data set [6] the test system is CDK6-overexpressing xenografts. The data set can be described thus: Efficacy study, cell-derived xenograft. The settings on record: 25-35 days. It counts as in vivo, NSG mice. The method, then:
(§2) Efficacy study. NOD.Cg-Prkdc Il2rg<tm1Wjl>/SzJ (NSG) mice were obtained from the Jackson Laboratory (Stock #: 005557). Each mouse was injected with MCF7 parental, CDK6-ovexpressing or PTEN loss cells subcutaneously 1 week after the implantation of estradiol pellets (25 mg). […] Tumor volumes were recorded every 3-4 days. Mice were sacrificed if tumors reached 1000 mm^3 or at the end of the experiment. Tumors were collected and processed as described above.

Data set [7] relates to MCF7 parental cell-derived xenografts. The data set can be described thus: Efficacy study, cell-derived xenograft. It counts as in vivo, NSG mice. The settings on record: ribociclib 25 mg/kg p.o., BSJ-05-017 50 mg/kg i.p., BSJ-03-096 50 mg/kg p.o., 25-35 days. The method, then:
as §2

The test system of data set [8] is shPTEN (PTEN loss) xenografts. Briefly: Efficacy study, cell-derived xenograft. In kind it is in vivo, NSG mice. The settings on record: 25-35 days. The method, then:
as §2

Data set [9] relates to MOLT4 cells. The data set can be described thus: Global quantitative mass spectrometry proteomics. In kind it is cell-based, human. The conditions noted are these: 250 nM, 5 h. The method, then: Molt4 cells were treated with 250 nM of compounds BSJ-05-017 or BSJ-03-096 (singlicate) or DMSO control (biological triplicate) for 5 hours. Cells were harvested by centrifugation and prepared for mass spectrometry as described previously (28). Data were collected as reported (28). LC-MS data were analyzed using Proteome Discoverer 2.4 (Thermo Fisher Scientific), as previously described (28). Reporter ion intensities were normalized and scaled using in-house scripts in the R framework (63). Statistical analysis was carried out using the limma package within the R framework (64).

In data set [10] the test system is MCF-7 CDK6-high cells (FAT1 loss). Briefly: Cell viability assay (Resazurin). It counts as cell-based, human. The conditions noted are these: day 7. The method, then:
(§3) Cell viability was measured by Resazurin (R&D Systems, Minneapolis, MN, USA) as described previously (51). Briefly, 1,500 cells were seeded in a 96-well plate and allowed to recover overnight. Cells were treated with drugs at day 0. Resazurin was added to the cells 4 hours prior to the measurements on day 3, day 5 and day 7. Fluorescent intensity was measured using a microplate reader (SpectraMax M5, Molecular Devices, Sunnyvale, CA, USA). IC50 was calculated by GraphPad Prism 7.0 using a sigmoidal regression model.
Background: Resazurin is reduced to fluorescent resorufin, in cell work by metabolically active cells.

The test system of data set [11] is MCF-7 parental cells. Briefly: Cell viability assay (Resazurin). In kind it is cell-based, human. The conditions noted are these: day 7. The method, then:
as §3

The mark [12] stands for this setting: FAT1 loss / CDK6-high CDK4/6i-resistant MCF7 cells, 24 h treatment.
Where [13] appears, read: MCF7 cells with overexpression of CDK6.
Where [14] appears, read: BSJ-05-017 50 mg/kg i.p., BSJ-03-096 50 mg/kg p.o.

“Also recorded” adds a separate entry of the source.

CDK6, sequence (Q00534 whole entry): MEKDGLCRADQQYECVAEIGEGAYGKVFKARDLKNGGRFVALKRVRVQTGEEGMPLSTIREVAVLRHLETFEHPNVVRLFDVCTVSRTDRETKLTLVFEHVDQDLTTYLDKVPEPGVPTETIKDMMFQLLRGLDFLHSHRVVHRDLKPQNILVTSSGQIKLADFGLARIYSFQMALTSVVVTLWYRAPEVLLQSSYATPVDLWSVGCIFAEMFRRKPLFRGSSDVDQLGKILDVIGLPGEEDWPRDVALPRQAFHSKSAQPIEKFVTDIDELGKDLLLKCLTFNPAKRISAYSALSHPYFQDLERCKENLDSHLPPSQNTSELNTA

With `CC(=O)c1c(C)c2cnc(Nc3ccc(N4CCN(CCC5CC(CNc6cccc7c6C(=O)N(C6CCC(=O)NC6=O)C7=O)C5)CC4)cn3)nc2n(C2CCCC2)c1=O` (stereo not drawn) [AM-01-125, 4-(((3-(2-(4-(6-((6-acetyl-8-cyclopentyl-5-methyl-7-oxo-7,8-dihydropyrido[2,3-d]pyrimidin-2-yl)amino)pyridin-3-yl)piperazin-1-yl)ethyl)cyclobutyl)methyl)amino)-2-(2,6-dioxopiperidin-3-yl)isoindoline-1,3-dione], the “inhibition of phosphorylation of Rb (and downstream E2F1/cyclin A2)” value (“inhibition … (and downstream E2F1/cyclin A2)” below) in data set [1] was “inhibit phosphorylation of Rb”. Besides, the “degradation of CDK6” value in data set [2] (setting [12]) is on record as “effectively degrade CDK4/CDK6”. In addition, in data set [3] (setting [12]), the “degradation of CDK4” value was “effectively degrade CDK4/CDK6”.

Consider `CC(=O)c1c(C)c2cnc(Nc3ccc(N4CCN(CCC5CCN(c6ccc7c(c6)C(=O)N(C6CCC(=O)NC6=O)C7=O)CC5)CC4)cn3)nc2n(C2CCCC2)c1=O` (stereo not drawn) [AM-01-269, 5-(4-(2-(4-(6-((6-acetyl-8-cyclopentyl-5-methyl-7-oxo-7,8-dihydropyrido[2,3-d]pyrimidin-2-yl)amino)pyridin-3-yl)piperazin-1-yl)ethyl)piperidin-1-yl)-2-(2,6-dioxopiperidin-3-yl)isoindoline-1,3-dione], for which, in [1], the “inhibition … (and downstream E2F1/cyclin A2)” value is recorded as “inhibiting phosphorylation of Rb”. The “degradation of CDK6” value in data set [2] (setting [12]) is “effective in degrading CDK4/6”. Moreover, the “degradation of CDK4” value in data set [3] (setting [12]) is given as “effective in degrading CDK4/6”.

As for `CC(=O)c1c(C)c2cnc(Nc3ccc(N4CCN(CCC5CCCCN5c5ccc6c(c5)C(=O)N(C5CCC(=O)NC5=O)C6=O)CC4)cn3)nc2n(C2CCCC2)c1=O` (stereo not drawn) [AM-01-275, 6-(2-(2-(4-(6-((6-acetyl-8-cyclopentyl-5-methyl-7-oxo-7,8-dihydropyrido[2,3-d]pyrimidin-2-yl)amino)pyridin-3-yl)piperazin-1-yl)ethyl)piperidin-1-yl)-2-(2,6-dioxopiperidin-3-yl)-3a,4-dihydro-1H-isoindole-1,3(2H)-dione], the “inhibition … (and downstream E2F1/cyclin A2)” value in data set [1] is given as “inhibiting phosphorylation of Rb”. Further, the “degradation of CDK6” value in data set [2] (setting [12]) was “effective in degrading CDK4/6”. For the same compound, the “degradation of CDK4” value in data set [3] (setting [12]) was “effective in degrading CDK4/6”.

`CC(=O)c1c(C)c2cnc(Nc3ccc(N4CCN(CC5CCN(c6ccc7c(c6)C(=O)N(C6CCC(=O)NC6=O)C7=O)CC5)CC4)cn3)nc2n(C2CCCC2)c1=O` (stereo not drawn) [BSJ-03-096, 5-(4-((4-(6-((6-acetyl-8-cyclopentyl-5-methyl-7-oxo-7,8-dihydropyrido[2,3-d]pyrimidin-2-yl)amino)pyridin-3-yl)piperazin-1-yl)methyl)piperidin-1-yl)-2-(2,6-dioxopiperidin-3-yl)isoindoline-1,3-dione]: the “inhibition of tumor growth” value in data set [4] is listed as “effective in inhibiting tumor growth”. Moreover, the “inhibition … (and downstream E2F1/cyclin A2)” value in [1] was “efficiently inhibit the phosphorylation of Rb protein; also recorded: effective inhibition of the phosphorylation of Rb”. In addition, the Cmax – broadly, the peak of the concentration-time curve – in data set [5] (male, C57BL/6, mouse, plasma, po, single dose 10 mg/kg p.o.) worked out at 900 nM. For the same compound, the concentration at 24 h in data set [5] (male, C57BL/6, mouse, plasma, po, single dose 10 mg/kg p.o., read-out: plasma concentration at 24h post dosing) is approximately 100 nM. For the same compound, in data set [5] (single dose in mice, i.p. or p.o.), the metabolic stability entry is reported as “good metabolic stability”. Also, the “degradation of CDK6” value in data set [2] (setting [12]) was “most significant degradation of both CDK4 and CDK6; also recorded: effective in degrading both CDK4 and CDK6; also recorded: high potency in degrading CDK4 and CDK6”; in data set [2] (setting [13]), “effectively degrade CDK4 and CDK6”. The “durable tumor inhibition (percent)” value in [6] (setting [14]) is −68.9%; in data set [8] (setting [14]) it was −54.9%. In [7], the tumor response entry is recorded as “sensitive”. The “degradation of CDK4” value in data set [3] (setting [12]) was “most significant degradation of both CDK4 and CDK6; also recorded: effective in degrading both CDK4 and CDK6; also recorded: high potency in degrading CDK4 and CDK6”; in [3] (setting [13]) it was “effectively degrade CDK4 and CDK6”. Further, the “selectivity in global proteomics” value in [9] is “highly selective for CDK4 and CDK6”.

For `CC(=O)c1c(C)c2cnc(Nc3ccc(N4CCN(CCOCCOCCOCCNC(=O)COc5cccc6c5C(=O)N(C5CCC(=O)NC5=O)C6=O)CC4)cn3)nc2n(C2CCCC2)c1=O` (stereo not drawn) [BSJ-03-123, N-(2-(2-(2-(2-(4-(6-((6-acetyl-8-cyclopentyl-5-methyl-7-oxo-7,8-dihydropyrido[2,3-d]pyrimidin-2-yl)amino)pyridin-3-yl)piperazin-1-yl)ethoxy)ethoxy)ethoxy)ethyl)-2-((2-(2,6-dioxopiperidin-3-yl)-1,3-dioxoisoindolin-4-yl)oxy)acetamide, reference compound], the “inhibition of cell growth” value in data set [10] and in data set [11] was “does not effectively inhibit the growth” throughout. In data set [2] (setting [12]), the “degradation of CDK6” value is “dose dependent targeting of CDK6; also recorded: effective CDK6 degradation; also recorded: dose-dependent degradation of CDK6”. In addition, the “degradation of CDK4” value in data set [3] (setting [12]) is listed as “not CDK4; also recorded: no effect on CDK4”.

For the compound `CC(=O)c1c(C)c2cnc(Nc3ccc(N4CCN(CCC5CCN(c6cccc7c6C(=O)N(C6CCC(=O)NC6=O)C7=O)CC5)CC4)cn3)nc2n(C2CCCC2)c1=O` (stereo not drawn) [MS-01-303, 4-(4-(2-(4-(6-((6-acetyl-8-cyclopentyl-5-methyl-7-oxo-7,8-dihydropyrido[2,3-d]pyrimidin-2-yl)amino)pyridin-3-yl)piperazin-1-yl)ethyl)piperidin-1-yl)-2-(2,6-dioxopiperidin-3-yl)isoindoline-1,3-dione], the “inhibition … (and downstream E2F1/cyclin A2)” value in data set [1] was “inhibit phosphorylation of Rb”. For the same compound, the “degradation of CDK6” value in data set [2] (setting [12]) is “effectively degrade CDK4/CDK6”. The “degradation of CDK4” value in [3] (setting [12]) is given as “effectively degrade CDK4/CDK6”.

As to `CC(=O)c1c(C)c2cnc(Nc3ccc(N4CCN(CCCC5CCN(c6cccc7c6C(=O)N(C6CCC(=O)NC6=O)C7=O)CC5)CC4)cn3)nc2n(C2CCCC2)c1=O` (stereo not drawn) [MS-02-24], the “inhibition … (and downstream E2F1/cyclin A2)” value in data set [1] is “inhibiting phosphorylation of Rb”. The “degradation of CDK6” value in [2] (setting [12]) was “effective in degrading CDK4/6”. Besides, in data set [3] (setting [12]), the “degradation of CDK4” value was “effective in degrading CDK4/6”.

As for `CN(C)C(=O)c1cc2cnc(Nc3ccc(N4CCNCC4)cn3)nc2n1C1CCCC1` [ribociclib, reference compound], the “inhibition of tumor growth” value in data set [4] was “does not inhibit their growth effectively”. The tumor response entry in data set [6] (ribociclib 25 mg/kg p.o.) is listed as “tumor outgrowth after initial response”; in data set [7], “sensitive”; in [8] (ribociclib 25 mg/kg p.o.) it was “tumor outgrowth after initial response”.
